# Experiments:
# [1] = test system: intracellular iron in HT29 cells; assay: Intracellular iron measurement (QuantiChrom kit); type: cell-based, human; conditions: HT29, 10 μM, 4, 8 and 16 h
# Protocol: HT29 cells were plated in 100 mm tissue culture plates for 48 h and then the cells were treated as indicated in the text. The cells were washed twice with PBS and then 100 μl triton lysis buffer (without EDTA) was added. The intracellular iron concentrations were determined using the QuantiChrom iron assay kit (BioAssay Systems; #ab83366) following the manufacturer's instructions. Briefly, iron standards of different concentrations were prepared by diluting the iron standard provided with the kit with distilled water. The diluted standards (50 μL) and sample cell lysates (50 μL) were transferred into a clear flat bottom 96-well-plate. Working reagent was prepared by mixing 20 volumes of reagent A, 1 volume reagent B and 1 volume reagent C provided with the kit. The working reagent (200 μL) was then added to the standard and sample wells. After mixing, the plate was incubated 40 min at room temperature and then the absorbance was measured at 590 nm. The iron concentration in each sample was calculated as described in the kit protocol.
# [2] = test system: ferritin H mRNA in HT29 cells; assay: Ferritin mRNA qRT-PCR; type: cell-based, human; conditions: HT29, 10 μM, 4, 8 and 16 h
# Protocol: Total RNA was extracted from HT29 cells by utilizing TRI reagent (Sigma Aldrich, St. Louis, MO, USA) and then it was purified with the Direct-zol RNA MiniPrep Kit (Zymo Research, Irvine, CA, USA). cDNA was synthesized from purified RNA by using the iScript cDNA Synthesis Kit (Bio-Rad laboratories, Hercules, CA, USA). qRT-PCR was performed by using the iTaq Universal SYBR Green Supermix (Bio-Rad laboratories, Hercules, CA, USA) with the BioRad CFX96 thermocycler (Bio-Rad laboratories, Hercules, CA, USA). The specific primer pair sequences were 5′-[…]-3′ and 5′-[…]-3′ for β-actin; and 5′-[…]-3′ and 5′-[…]-3′ for ferritin H (heavy-chain). Cycle threshold values were normalized to the internal beta-actin control. The ratio of fold change was calculated using the Pfaffl method ([37]).
# HT29 cells = assay: TUNEL assay in HT29; type: cell-based, human; conditions: 5 or 10 μM, 16 h
# Protocol: HT29, HCT116, and FHC cells were cultured in chamber slides and treated with 5 μM NSC735847, 10 μM NSC735847, or vehicle (0.1% DMSO). The cells were then washed with PBS and fixed in 4% paraformaldehyde before detection of double stranded DNA breaks that are characteristic of apoptosis. Terminal deoxynucleotidyl transferase dUTP nick end labeling (TUNEL) assays were performed as described by the manufacturer (in situ Cell Death Detection Kit; Roche; Indianapolis, IN). Briefly, fixed cells were incubated in permeabilization solution (0.1% Triton X-100 in 0.1% sodium citrate) for 2 min on ice. The slides were rinsed twice with PBS, 50 μL TUNEL reaction mixture was added, and then the samples were incubated for 1 h at 37°C in the dark. The slides were overlayed with antifade mounting medium containing DAPI and then visualized using a Zeiss LSM 700 confocal microscope system (Carl Zeiss Microscopy, LLC, White Plains, NY).
# [3] = test system: caspase 3/7 activity in HT29 cells; assay: Caspase-Glo 3/7 activity assay in HT29; type: cell-based, human; conditions: 16 h, 1.25-10 μM
# Protocol: (§1) The cells were plated in white-walled 96-well-plates and then they were cultured at 37°C for 48 h. Serum-free culture medium containing the appropriate concentration of different agents was added to the cells for the indicated period of time. Caspase-Glo 3/7 reagent (Promega, Madison, WI) was added to each well and luminescence was detected as directed by the manufacturer. The Caspase-Glo 3/7 kit measures the activity of the executioner caspases 3 and 7 using the luminogenic substrate (Z-DEVD-aminoluciferin) as substrate.
# [4] = test system: subcutaneous or orthotopic non-small cell lung cancer lesions; conditions: athymic nude mice with subcutaneous or orthotopic non-small cell lung cancer lesions; cited from earlier work
# [5] = test system: caspase 3/7 activity in HCT-116 cells; assay: Caspase-Glo 3/7 activity assay in HCT116; type: cell-based, human; conditions: 16 h, 1.25-10 μM
# Protocol: as §1
# FHC cells = assay: MTS cell viability assay, non-tumorigenic colon cells; type: cell-based; conditions: Homo sapiens, 24 h treatment
# Protocol: The human colon cancer cell lines HT29 and HCT116 were cultured in McCoy's 5A medium (Sigma Aldrich, St. Louis, MO) containing 10% heat-inactivated fetal bovine serum (FBS), penicillin (100 units/ml), and streptomycin (100 μg/ml). The non-tumorigenic colon cell line, FHC, was cultured in DMEM: F12 (1:1) medium supplemented with 10% heat inactivated FBS, 25 mM HEPES (Thermo Fisher Scientific Inc., IL), 10 ng/ml cholera toxin (Sigma Aldrich, St. Louis, MO), 0.005 mg/ml insulin (Thermo Fisher Scientific Inc., IL), 0.005 mg/ml, transferrin (Sigma Aldrich, St. Louis, MO), 100 ng/ml hydrocortisone (Sigma Aldrich, St. Louis, MO), 20 ng/mL human recombinant epidermal growth factor (Thermo Fisher Scientific Inc., IL), 100 units/ml penicillin, and 100 μg/ml streptomycin.
# Cells were cultured in 96-well-plates for 48 h before treatment. Serum-free media containing different agents was added to the cells at the concentration and time period described in the figure legend. MTS reagent (Promega, Madison, WI) was then added to each well and the absorbance was measured at 495 nm as directed by the manufacturer. In the presence of MTS reagent, the absorbance reading is proportional to the number of viable cells. The half-maximal inhibitory concentration (IC50) of the tested compounds is the concentration that reduces the viability of cells by 50%. IC50 was calculated after 24 h of treatment ([30], [31]) as described previously ([32]–[34]) from dose-response curves (log drug concentration vs. percentage viability from untreated cells) generated by non-linear regression analysis with GraphPad Prism 5 software (GraphPad Software, San Diego, California).
structure (smiles),measurement,setting,value
CC1CCC2C(C)C(OCC(COC3OC4OC5(C)CCC6C(C)CCC(C3C)C46OO5)=NO)OC3OC4(C)CCC1C32OO4 (stereo not shown) [compound (3)],cellular free iron,[1],time-dependent increase in cellular free iron
same,ferritin mRNA expression,[2],upregulated the expression of ferritin mRNA
same,TUNEL positive cells in HT29,HT29 cells,increased the quantity of TUNEL positive cells
same,caspase 3/7 activity in HT-29,[3],significantly increased
same,body weight of tumor-bearing mice,[4],did not cause significant changes in the body weight
same,caspase 3/7 activity in HCT-116,[5],significantly increased
same,IC50,FHC cells,> 25 µM
